{"source": "patent US10118947B2", "about": "“Modulation of structured polypeptide specificity” (BICYCLE THERAPEUTICS LIMITED, priority 2013, dated 2018)", "key": {"[1]": {"assay": "Plasma stability profiling Method #1 (MALDI-TOF, 35% plasma), rat plasma", "assay_type": "in vitro ADME", "details": "method #1", "experimental": "A rapid plasma stability profiling assay was developed that employed mass spectrometric detection (MALDI-TOF, Voyager DE, Applied Biosystems) of the parent mass, until the time when the parent peptide mass was no longer observable. Specifically, 200 uM of peptide was incubated in the presence of 35% rat or human plasma (Sera labs, using citrate as anticoagulant) at 37 deg C., which was supplemented with 1×PBS (derived from a 10×PBS Stock, Sigma). At various time points (i.e. t=0, 3, 24 hrs, henceafter daily up to 10 days), 2 uL of sample was added to 18 uL of 30 mM ammonium bicarbonate in a 1:1 mixture of acetonitrile:H2O. Samples were frozen at −80 deg C. until the time of analysis. For mass spectrometric analysis that determines the approximate detection window of the peptide, the acetonitrile:H2O-diluted sample of a given time point was spotted directly (0.7 uL) onto the MALDI plate. Matrix (alpha-cyanocinnamic acid, Sigma, prepared as a saturated solution in 1:1 acetonitrile:water containing 0.1% trifluoroacetic acid) was layered over the sample (1 uL). At a similar laser intensity setting on the MALDI TOF, the time could then be determined until parent peptide was no longer detectable. It should be noted that this is a qualitative assay serves to detect relative changes in plasma stability."}, "human plasma Kallikrein": {"target": "T1, human plasma Kallikrein (Homo sapiens, UniProt P03952)", "T1 construct": "purchased Stratech, UK", "T1 sequence (P03952 20-638)": "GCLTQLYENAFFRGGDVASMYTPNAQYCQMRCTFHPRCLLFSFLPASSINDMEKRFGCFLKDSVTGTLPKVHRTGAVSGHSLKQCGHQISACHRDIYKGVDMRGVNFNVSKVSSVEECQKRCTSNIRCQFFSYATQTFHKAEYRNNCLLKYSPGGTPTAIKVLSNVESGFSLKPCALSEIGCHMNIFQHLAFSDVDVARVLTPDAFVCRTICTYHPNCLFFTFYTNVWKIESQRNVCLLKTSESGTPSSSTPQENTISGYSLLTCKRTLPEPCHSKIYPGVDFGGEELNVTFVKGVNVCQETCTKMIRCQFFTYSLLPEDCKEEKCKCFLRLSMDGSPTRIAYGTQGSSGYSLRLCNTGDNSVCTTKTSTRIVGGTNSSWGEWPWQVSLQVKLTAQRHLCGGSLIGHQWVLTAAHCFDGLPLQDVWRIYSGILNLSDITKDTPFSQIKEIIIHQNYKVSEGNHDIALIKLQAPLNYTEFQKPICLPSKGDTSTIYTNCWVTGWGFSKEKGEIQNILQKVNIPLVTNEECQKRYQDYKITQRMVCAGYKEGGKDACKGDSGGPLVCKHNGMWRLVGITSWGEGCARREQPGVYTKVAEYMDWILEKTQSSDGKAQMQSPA", "assay": "Functional enzyme inhibition assay with fluorogenic substrate Z-PheArg-AMC, human plasma Kallikrein", "assay_type": "biochemical", "details": "for pKi / F (Kivar/KiWT): Table 24c; for pKi: residue 8 modifications, read-out: Ki; for F (Kivar/KiWT): ratio of Ki to wild type; for Ki: Table 24a, residue 6 modification in the context of Ac-(06-34-18), read-out: Ki (nM) Ac-(06-34-18)", "how_it_was_run": "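Rates of AMC release (excitation 360 nm, emission 460 nm) from 100 μM final Z-PheArg-AMC, 4% DMSO, were taken over the linear phase, typically 5 to 45 minutes. IC50 from four-parameter non-linear regression; Ki also derived.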"}}, "note": "pKi: −log10 of the molar value. Where two headings read alike, the source gives them in different places. Numbered stars: 1 amine (or outer) side, 2 acyl side, 3 side chain; on linkers, the order of the positions; unused ones are H or OH. Bridge positions count the residues as written; N and C are the ends. Square brackets hold non-standard residues; d marks the D form. Peptide text beside a SMILES is read from it. Pro(4R-Bn) = O=C(O)[C@@H]1C[C@@H](Cc2ccccc2)CN1; Pro(trans-4-F) = O=C(O)[C@@H]1C[C@@H](F)CN1; Bip = N[C@@H](Cc1ccc(-c2ccccc2)cc1)C(=O)O; Dip = N[C@H](C(=O)O)C(c1ccccc1)c1ccccc1; 1Nal = N[C@@H](Cc1cccc2ccccc12)C(=O)O; 2Nal = N[C@@H](Cc1ccc2ccccc2c1)C(=O)O; TBMB = c1c(C[*:1])cc(C[*:3])cc1C[*:2]; 3Pal = N[C@@H](Cc1cccnc1)C(=O)O; 4Pal = N[C@@H](Cc1ccncc1)C(=O)O; β3hQ = NC(=O)CC[C@H](N)CC(=O)O; Phg = N[C@H](C(=O)O)c1ccccc1; Tle = CC(C)(C)[C@H](N)C(=O)O"}
{"smiles": "CC(=O)N[C@H]1CSCc2cc3cc(c2)CSC[C@H](NC(=O)[C@H](CCCNC(=N)N)NC(=O)[C@H](C)NC(=O)[C@@H]2CCCN2C(=O)[C@H](Cc2cccc4ccccc24)NC(=O)[C@H](CO)NC1=O)C(=O)N[C@@H](CC(C)C)C(=O)N[C@@H](Cc1c[nH]cn1)C(=O)N[C@@H](CCC(N)=O)C(=O)N[C@@H](CC(=O)O)C(=O)N[C@@H](CC(C)C)C(=O)N[C@H](C(N)=O)CSC3", "note": "[Ac-(06-34-18) 1NAL2] (Ac-CS[1Nal]PARCLHQDLC-NH2; linker 1-7-13 via TBMB)", "values": [{"measurement": "Observable in rat plasma, for days", "setting": "[1]; Table 12", "value": 2, "unit": "days"}]}
{"smiles": "CC(=O)N[C@H]1CSCc2cc3cc(c2)CSC[C@H](NC(=O)[C@H](CCCNC(=N)N)NC(=O)[C@H](C)NC(=O)[C@@H]2CCCN2C(=O)[C@H](Cc2ccc4ccccc4c2)NC(=O)[C@H](CO)NC1=O)C(=O)N[C@@H](CC(C)C)C(=O)N[C@@H](Cc1c[nH]cn1)C(=O)N[C@@H](CCC(N)=O)C(=O)N[C@@H](CC(=O)O)C(=O)N[C@@H](CC(C)C)C(=O)N[C@H](C(N)=O)CSC3", "note": "[Ac-(06-34-18) 2NAL2] (Ac-CS[2Nal]PARCLHQDLC-NH2; linker 1-7-13 via TBMB)", "values": [{"measurement": "Observable in rat plasma, for days", "setting": "[1]; Table 12", "value": 2, "unit": "days"}]}
{"smiles": "CC(=O)N[C@H]1CSCc2cc3cc(c2)CSC[C@H](NC(=O)[C@H](CCCNC(=N)N)NC(=O)[C@H](C)NC(=O)[C@@H]2CCCN2C(=O)[C@H](C(c2ccccc2)c2ccccc2)NC(=O)[C@H](CO)NC1=O)C(=O)N[C@@H](CC(C)C)C(=O)N[C@@H](Cc1c[nH]cn1)C(=O)N[C@@H](CCC(N)=O)C(=O)N[C@@H](CC(=O)O)C(=O)N[C@@H](CC(C)C)C(=O)N[C@H](C(N)=O)CSC3", "note": "[Ac-(06-34-18) 3,3-DPA2] (Ac-CS[Dip]PARCLHQDLC-NH2; linker 1-7-13 via TBMB)", "values": [{"measurement": "Observable in rat plasma, for days", "setting": "[1]; Table 12", "value": 2, "unit": "days"}]}
{"smiles": "CC(=O)N[C@H]1CSCc2cc3cc(c2)CSC[C@H](NC(=O)[C@H](CCCNC(=N)N)NC(=O)[C@H](C)NC(=O)[C@@H]2CCCN2C(=O)[C@H](Cc2cccnc2)NC(=O)[C@H](CO)NC1=O)C(=O)N[C@@H](CC(C)C)C(=O)N[C@@H](Cc1c[nH]cn1)C(=O)N[C@@H](CCC(N)=O)C(=O)N[C@@H](CC(=O)O)C(=O)N[C@@H](CC(C)C)C(=O)N[C@H](C(N)=O)CSC3", "note": "[Ac-(06-34-18) 3Pal2] (Ac-CS[3Pal]PARCLHQDLC-NH2; linker 1-7-13 via TBMB)", "values": [{"measurement": "Observable in rat plasma, for days", "setting": "[1]; Table 12", "value": 2, "unit": "days"}]}
{"smiles": "CC(=O)N[C@H]1CSCc2cc3cc(c2)CSC[C@H](NC(=O)[C@H](CCCNC(=N)N)NC(=O)[C@H](C)NC(=O)[C@@H]2CCCN2C(=O)[C@H](Cc2ccc(-c4ccccc4)cc2)NC(=O)[C@H](CO)NC1=O)C(=O)N[C@@H](CC(C)C)C(=O)N[C@@H](Cc1c[nH]cn1)C(=O)N[C@@H](CCC(N)=O)C(=O)N[C@@H](CC(=O)O)C(=O)N[C@@H](CC(C)C)C(=O)N[C@H](C(N)=O)CSC3", "note": "[Ac-(06-34-18) 4,4,BPal2] (Ac-CS[Bip]PARCLHQDLC-NH2; linker 1-7-13 via TBMB)", "values": [{"measurement": "Observable in rat plasma, for days", "setting": "[1]; Table 12", "value": 2, "unit": "days"}]}
{"smiles": "CC(=O)N[C@H]1CSCc2cc3cc(c2)CSC[C@H](NC(=O)[C@H](CCCNC(=N)N)NC(=O)[C@H](C)NC(=O)[C@@H]2C[C@@H](Cc4ccccc4)CN2C(=O)[C@H](Cc2c[nH]c4ccccc24)NC(=O)[C@H](CO)NC1=O)C(=O)N[C@@H](CC(C)C)C(=O)N[C@@H](Cc1c[nH]cn1)C(=O)N[C@@H](CCC(N)=O)C(=O)N[C@@H](CC(=O)O)C(=O)N[C@@H](CC(C)C)C(=O)N[C@H](C(N)=O)CSC3", "note": "[Ac-(06-34-18) 4Benzyl Pro3] (Ac-CSW[Pro(4R-Bn)]ARCLHQDLC-NH2; linker 1-7-13 via TBMB)", "values": [{"measurement": "Observable in rat plasma, for days", "setting": "[1]; Table 13", "value": 2, "unit": "days"}]}
{"smiles": "CC(=O)N[C@H]1CSCc2cc3cc(c2)CSC[C@H](NC(=O)[C@H](CCCNC(=N)N)NC(=O)[C@H](C)NC(=O)[C@@H]2C[C@@H](F)CN2C(=O)[C@H](Cc2c[nH]c4ccccc24)NC(=O)[C@H](CO)NC1=O)C(=O)N[C@@H](CC(C)C)C(=O)N[C@@H](Cc1c[nH]cn1)C(=O)N[C@@H](CCC(N)=O)C(=O)N[C@@H](CC(=O)O)C(=O)N[C@@H](CC(C)C)C(=O)N[C@H](C(N)=O)CSC3", "note": "[Ac-(06-34-18) 4FluoPro3] (Ac-CSW[Pro(trans-4-F)]ARCLHQDLC-NH2; linker 1-7-13 via TBMB)", "values": [{"measurement": "Observable in rat plasma, for days", "setting": "[1]; Table 13", "value": 2, "unit": "days"}]}
{"smiles": "CC(=O)N[C@H]1CSCc2cc3cc(c2)CSC[C@H](NC(=O)[C@H](CCCNC(=N)N)NC(=O)[C@H](C)NC(=O)[C@@H]2CCCN2C(=O)[C@H](Cc2ccncc2)NC(=O)[C@H](CO)NC1=O)C(=O)N[C@@H](CC(C)C)C(=O)N[C@@H](Cc1c[nH]cn1)C(=O)N[C@@H](CCC(N)=O)C(=O)N[C@@H](CC(=O)O)C(=O)N[C@@H](CC(C)C)C(=O)N[C@H](C(N)=O)CSC3", "note": "[Ac-(06-34-18) 4Pal2] (Ac-CS[4Pal]PARCLHQDLC-NH2; linker 1-7-13 via TBMB)", "values": [{"measurement": "Observable in rat plasma, for days", "setting": "[1]; Table 12", "value": 2, "unit": "days"}]}
{"smiles": "CC(=O)N[C@H]1CSCc2cc3cc(c2)CSC[C@H](NC(=O)[C@H](CCCNC(=N)N)NC(=O)[C@H](Cc2ccc(O)cc2)NC(=O)[C@@H]2CCCN2C(=O)[C@H](Cc2ccccc2)NC(=O)[C@H](CO)NC1=O)C(=O)N[C@@H](CC(C)C)C(=O)N[C@@H](Cc1c[nH]cn1)C(=O)N[C@@H]([C@@H](C)O)C(=O)N[C@@H](CC(=O)O)C(=O)N[C@@H](CC(C)C)C(=O)N[C@H](C(N)=O)CSC3", "note": "[Ac-(06-34-18) Phe2 Tyr4 Thr8] (Ac-CSFPYRCLHTDLC-NH2; linker 1-7-13 via TBMB)", "values": [{"measurement": "pKi", "setting": "human plasma Kallikrein", "value": 8.37}, {"measurement": "F (Kivar/KiWT)", "setting": "human plasma Kallikrein", "value": 10}]}
{"smiles": "CC(=O)N[C@H]1CSCc2cc3cc(c2)CSC[C@H](NC(=O)[C@H](CCCNC(=N)N)NC(=O)[C@H](Cc2ccc(O)cc2)NC(=O)[C@@H]2CCCN2C(=O)[C@H](Cc2ccccc2)NC(=O)[C@H](CO)NC1=O)C(=O)N[C@@H](CC(C)C)C(=O)N[C@@H](Cc1c[nH]cn1)C(=O)N[C@@H](CCC(N)=O)CC(=O)N[C@@H](CC(=O)O)C(=O)N[C@@H](CC(C)C)C(=O)N[C@H](C(N)=O)CSC3", "note": "[Ac-(06-34-18) Phe2 Tyr4 bHGln8] (Ac-CSFPYRCLH[β3hQ]DLC-NH2; linker 1-7-13 via TBMB)", "values": [{"measurement": "pKi", "setting": "human plasma Kallikrein", "value": 7.77}, {"measurement": "F (Kivar/KiWT)", "setting": "human plasma Kallikrein", "value": 40}]}
{"smiles": "CC(=O)N[C@H]1CSCc2cc3cc(c2)CSC[C@H](NC(=O)[C@H](CCCNC(=N)N)NC(=O)[C@H](C)NC(=O)[C@@H]2CCCN2C(=O)[C@H](Cc2c[nH]c4ccccc24)NC(=O)[C@H](CO)NC1=O)C(=O)N[C@@H](c1ccccc1)C(=O)N[C@@H](Cc1c[nH]cn1)C(=O)N[C@@H](CCC(N)=O)C(=O)N[C@@H](CC(=O)O)C(=O)N[C@@H](CC(C)C)C(=O)N[C@H](C(N)=O)CSC3", "note": "[Ac-(06-34-18) Phg6] (Ac-CSWPARC[Phg]HQDLC-NH2; linker 1-7-13 via TBMB)", "values": [{"measurement": "Ki", "setting": "human plasma Kallikrein", "value": 0.18, "unit": "nM"}]}
{"smiles": "CC(=O)N[C@H]1CSCc2cc3cc(c2)CSC[C@H](NC(=O)[C@H](CCCNC(=N)N)NC(=O)[C@H](C)NC(=O)[C@@H]2CCCN2C(=O)[C@H](Cc2c[nH]c4ccccc24)NC(=O)[C@H](CO)NC1=O)C(=O)N[C@@H](C(C)(C)C)C(=O)N[C@@H](Cc1c[nH]cn1)C(=O)N[C@@H](CCC(N)=O)C(=O)N[C@@H](CC(=O)O)C(=O)N[C@@H](CC(C)C)C(=O)N[C@H](C(N)=O)CSC3", "note": "[Ac-(06-34-18) tBuGly6] (Ac-CSWPARC[Tle]HQDLC-NH2; linker 1-7-13 via TBMB)", "values": [{"measurement": "Ki", "setting": "human plasma Kallikrein", "value": 0.49, "unit": "nM"}]}
